Measurements from US20120264159A1, “SCREENING SYSTEM FOR MODULATORS OF HER2 MEDIATED TRANSCRIPTION AND HER2 MODULATORS IDENTIFED THEREBY” (BUCK INSTITUTE FOR AGE RESEARCH, priority 2001, published 2012).
Entries after “also recorded” stand apart in the source; their conditions may differ.

How the values were obtained:
ErbB2 promoter = experiment: Genomically integrated ErbB2 promoter-luciferase reporter screen in MCF/R06pGL-9 cells; format: cell-based, human; settings: 24 h treatment
Procedure: Reporter activity was assayed as follows: From T-150 or T-75 culture flasks, about […] cells/well were plated into a 96 well plate format for high-throughput screening. 24 hours post plating a test agent e.g. a drug from a combinatorial library, was added to the wells at various concentrations. Certain wells were used as controls (e.g. PBS or DMSO vehicle only). Replicate wells ([…] per drug concentration) were run. 24 hours after addition of the test agent the cells were lysed, a luciferase reagent was added and activity in each well was read using a high-throughput screening plate reader (labsystems Fluoroskan). Parallel plates were run for cell viability using an MTT assay (Sigma).
A luciferase reporter plasmid (designated RO6pGL-luc) was constructed by inserting the ˜500 bp SmaI-SmaI fragment of the human ErbB2 proximal promoter (12) into the pGL3Basic plasmid driving a luciferase reporter gene, as has been described (10). R06pGL-luc and a plasmid expressing neomycin phosphotransferase were co-transfected into the MCF-7 cells (ATCC) using Effectene (Qiagen). Cells were selected for stable expression of luciferase and neomycin (G418)-resistance. […] The reaction was quantified by absorbance at 570 nm measured with a microplate reader (Molecular Devices) and the mean (±SD) optical density recorded after normalization by the vehicle treated controls. […]

ErbB2 transcript = experiment: Northern blot of ErbB2 transcript levels in ErbB2 overexpressing breast cancer cells; format: cell-based, human
Procedure: The conserved and singular DNase I hypersensitivity sites found in the proximal ErbB2 and ESX promoters (12,15) were assayed as before (12). Briefly, following culture treatment of cells, nuclei isolated by mild detergent lysis in a buffer containing 10 mM Hepes pH 7.9, 1.5 mM MgCl2, 10 mM KCl, 0.4% NP-40, 10% glycerol and 1 mM DTT. Partial DNase I digestions were carried out by varying DNase I treatment times (0-15 minutes at 37( ) at a fixed DNase I concentrations (0.5-1.0 units per 10^6 nuclei). After purifying and restricting the DNA, it was electrophoresed through 0.7% agarose gels and blotted onto nylon membranes, UV-crosslinked and hybridized with randomly ^32P-labelled ErbB2 and ESX promoter probes, as similarly performed for routine Southern blotting. For Northern blotting, total (treated vs. control) cell RNA (10 μg/sample lane) was isolated using TRIzol (Invitrogen) according to manufacturer's specifications, electrophoresed into 1% agarose-formaldehyde gels and transferred onto membranes that were then hybridized with ^32P-labelled ErbB2 and ESX cDNA probes. For transcriptional run-off assays cell nuclei were first isolated from treated and control cells as described for the DNase I studies. Elongatation of initiated nascent RNA chains was performed at 37 (C for 30 minutes using ˜5×10^6 nuclei per reaction in a buffer containing 10 mM Tris pH7.5, 2.5 mM MgCl2, 150 mM KCl, 1 mM DTT, 10% glycerol, 0.5 mM ATP, GTP and CTP, and 100 μCi of [α-^32P]UTP (800 Ci/mmol). Nuclear RNA was purified by the addition of 100 units of RNase-free DNase I (Roche) per reaction for 2 minutes followed by TRIzol processing. Radiolabelled RNA was hybridized (˜4×10^6 cpm) at 68 (C in ExpressHyb (Clontech) for 24 hours to nylon filter membranes previously slotted with 0.5 μg per slot of unlabelled ErbB2 cDNA fragments (from either the transmembrane or C-terminal domains), ESX cDNA fragments, and empty plasmid control, as we have previously described (16). Filters were washed at 64 (C in 0.2 SSC and 0.5% SDS. For Western blotting, whole-cell extracts from control vs. treated cells were boiled in sample loading buffer (1% SDS, 20% glycerol, 100 mM DTT, 50 mM Tris, pH 6.8), gel lanes loaded for constant total protein (15 μg), electrophoresed into 9% sodium dodecyl sulfacte polyacrylamide (SDS-PAGE) gels, transferred onto membranes (Immobilon-P, Millipore), and the protein-bound membranes hybridized with a primary antibody followed by a horseradish peroxidase-conjugated secondary antibody (Sigma), and specific protein bands visualized by chemiluminescent substrate (Pierce), as previously described (10).

[1] = test system: ErbB2 and ESX promoter hypersensitive loci; experiment: DNase I hypersensitivity analysis of ErbB2 and ESX promoters; format: cell-based, human; settings: SKBR3 cells, 24 hour, 0.4 μM TSA
Procedure: The conserved and singular DNase I hypersensitivity sites found in the proximal ErbB2 and ESX promoters (12,15) were assayed as before (12). Briefly, following culture treatment of cells, nuclei isolated by mild detergent lysis in a buffer containing 10 mM Hepes pH 7.9, 1.5 mM MgCl2, 10 mM KCl, 0.4% NP-40, 10% glycerol and 1 mM DTT. Partial DNase I digestions were carried out by varying DNase I treatment times (0-15 minutes at 37( ) at a fixed DNase I concentrations (0.5-1.0 units per 10^6 nuclei). After purifying and restricting the DNA, it was electrophoresed through 0.7% agarose gels and blotted onto nylon membranes, UV-crosslinked and hybridized with randomly ^32P-labelled ErbB2 and ESX promoter probes, as similarly performed for routine Southern blotting. For Northern blotting, total (treated vs. control) cell RNA (10 μg/sample lane) was isolated using TRIzol (Invitrogen) according to manufacturer's specifications, electrophoresed into 1% agarose-formaldehyde gels and transferred onto membranes that were then hybridized with ^32P-labelled ErbB2 and ESX cDNA probes. For transcriptional run-off assays cell nuclei were first isolated from treated and control cells as described for the DNase I studies. […]

[2] = test system: NCI panel of 60 human cancer cell lines; settings: NCI/DTP screen, 60 human cancer cell line panel; read-out: median cytotoxic concentration (LC50); cited from earlier work
[3] = test system: carcinogen-induced mammary cancer; settings: up to 5 mg/kg, cited from earlier work

CC(/C=C/C(=O)NO)=C\[C@@H](C)C(=O)c1ccc(N(C)C)cc1 [TSA, trichostatin A]
ErbB2 promoter-reporter (luciferase) activity (ErbB2 promoter): significantly represses; also recorded: significant reduction of luciferase activity
ErbB2 transcript levels relative to control (ErbB2 transcript; 8 hour TSA treatment, Northern assays (data not shown)): < 20 % of control
ErbB2 transcript levels (ErbB2 transcript; MDA-453 and BT-474 cells, similar TSA treatment (data not shown)): Virtually complete elimination of ErbB2 transcript levels
ErbB2 mRNA level / decay (ErbB2 transcript; SKBR3 cells, 5 hours treatment, TSA 0.05 or 0.40 μM, Act D 10 μg/ml): greatly enhanced the rate of ErbB2 mRNA decay
ErbB2 transcript levels (ErbB2 transcript; SKBR3 cells, 24 hours, 0.4 μM TSA): near total disappearance of ErbB2 transcripts
DNase I hypersensitivity of ErbB2 and ESX promoter loci [1]: lack of any TSA treatment effects on the hypersensitive loci
CC50 [2]: > 10 µM
ill effects ([3]; adult or embryonic mice): no ill effects
antitumor activity ([3]; ip, sc, carcinogen-induced mammary cancer): potent antitumor activity
